The compounds below were run on rat embryonic cardiomyocytes H9C2 (assay: MTT proliferation inhibition / toxicity, H9C2). Conditions: Rattus norvegicus; H9C2 cardiomyocytes, MTT, 48 h; read-out: Inhibitory activity (IC50) against proliferation, H9C2.
Assay type: cell-based
Method: (§1) The anti-tumor activity of the compounds of the present invention was determined by the method of methyl thiazolyl tetrazolium (MTT), Bardoxolone Methyl (CDDO-Me) being selected as a positive control medicament.
(§2) Instruments: ultra-clean bench (SW-CJ-1FD, AIRTECH, Suzhou Antai Airtech Co. Ltd.), constant-temperature CO2 incubator (3111, Thermo, USA), inverted biomicroscope (IX71, OLYMPUS, Japan), ELISA microplate reader (Model 680, BIO-RAD, USA), platform shaker (Kylin-bell lab Instruments), autoclave (YXO.SG4I.280, Shanghai Huaxian), and centrifuge (SIGMA).
(§3) Reagents: DMEM (GIBCO), fetal bovine serum (GIBCO), trypsin (SIGMA), and DMSO (SIGMA).
(§4) Cell strains: human non-small cell lung cancer cell strain A549, human liver cancer cell strain HepG2, human breast cancer cell strain MCF-7, human renal tubular epithelial cells HK-2, rat embryonic cardiomyocytes H9C2 (all provided by Jiangsu KeyGEN BioTECH Co., Ltd.).
(§5) Methods: the cryopreserved cell strains were resuscitated and cultured in a CO2 incubator at a constant temperature of 37° C. with liquid being changed once daily. Plating was carried out when the cell strains were in a good state in the exponential phase. 1 mL of 0.25% trypsin solution was added for digestion for 1-2 min. The cell status was observed under the microscope, and when the adherent cells became round and shrunk, the digestion solution was aspirated and 1-2 mL of a DMEM medium containing 10% fetal bovine serum was added to obtain a cell suspension, on which a cell count was performed. The amount of required cell suspension was calculated on the basis of 5×10^4 cells per well and the total number of wells. The cell suspension was inoculated on a 96-well plate at 100 μL/well, the surroundings being blocked with PBS, followed by incubation in a CO2 incubator at a constant temperature of 37° C. for 24 h.
(§6) The test medicament, positive control medicament CDDO-Me, and blank control group DMSO were prepared in DMEM media to a final concentration of 5 μM/well, each medicament being placed in 3 replicate wells, followed by incubation for 48 h. The MTT reagent was added to the 96-well plate at 10 μL/well to further incubate for 4 h. The medium in the plate was aspirated and 100 μL of DMSO was added to each well, followed by shaking on the platform shaker for 10 min such that the crystals were dissolved. The absorbance of each well was examined by the ELISA microplate reader at a wavelength of 570 nm, and the cell inhibition rate was calculated according to the formula hereinafter. The mean value of three preliminary screening results was taken as the final inhibition rate thereof.
(§7) Cell inhibition rate (%)=[(OD value of blank control−OD value of dosing cohort)/OD value of blank control group]×100%

Compound	IC50 [µM]
CC1(C)CC[C@]2(NC(=O)/C=C/c3ccccc3)CC[C@]3(C)[C@H](C(=O)C=C4[C@@]5(C)C=C(C#N)C(=O)C(C)(C)[C@@H]5CC[C@]43C)[C@@H]2C1 [Compound I-1]	0.251 ± 0.008
CC1(C)CC[C@]2(NC(=O)/C=C/c3ccc(C(F)(F)F)cc3)CC[C@]3(C)[C@H](C(=O)C=C4[C@@]5(C)C=C(C#N)C(=O)C(C)(C)[C@@H]5CC[C@]43C)[C@@H]2C1 [Compound I-4]	0.215 ± 0.004

These compounds were tested on human renal tubular epithelial cells HK-2 (assay: MTT proliferation inhibition / toxicity, HK-2). Conditions: Homo sapiens; HK-2 cells, MTT, 48 h; read-out: Inhibitory activity (IC50) against proliferation, HK-2.
Assay type: cell-based
Method: as §1, §2, §3, §4, §5, §6, §7

Compound	IC50 [µM]
CC1(C)CC[C@]2(NC(=O)/C=C(\C#N)c3ccc(F)cc3)CC[C@]3(C)[C@H](C(=O)C=C4[C@@]5(C)C=C(C#N)C(=O)C(C)(C)[C@@H]5CC[C@]43C)[C@@H]2C1 [Compound I-17]	0.229 ± 0.126
CC1(C)CC[C@]2(NC(=O)/C=C(\C#N)c3ccc(Cl)cc3)CC[C@]3(C)[C@H](C(=O)C=C4[C@@]5(C)C=C(C#N)C(=O)C(C)(C)[C@@H]5CC[C@]43C)[C@@H]2C1 [Compound I-18]	0.647 ± 0.021
CC1(C)CC[C@]2(NC(=O)/C=C/c3ccccc3)CC[C@]3(C)[C@H](C(=O)C=C4[C@@]5(C)C=C(C#N)C(=O)C(C)(C)[C@@H]5CC[C@]43C)[C@@H]2C1 [Compound I-1]	0.799 ± 0.092
CC1(C)CC[C@]2(NC(=O)/C=C/c3ccc(C(F)(F)F)cc3)CC[C@]3(C)[C@H](C(=O)C=C4[C@@]5(C)C=C(C#N)C(=O)C(C)(C)[C@@H]5CC[C@]43C)[C@@H]2C1 [Compound I-4]	0.516 ± 0.072

Same assay, conditions: statement in words

Compound	toxicity to human renal tubular epithelial cells HK-2
CC1(C)CC[C@]2(NC(=O)/C=C(\C#N)c3ccc(Cl)cc3)CC[C@]3(C)[C@H](C(=O)C=C4[C@@]5(C)C=C(C#N)C(=O)C(C)(C)[C@@H]5CC[C@]43C)[C@@H]2C1 [Compound I-18]	lower toxicity
CC1(C)CC[C@]2(NC(=O)/C=C/c3ccccc3)CC[C@]3(C)[C@H](C(=O)C=C4[C@@]5(C)C=C(C#N)C(=O)C(C)(C)[C@@H]5CC[C@]43C)[C@@H]2C1 [Compound I-1]	lower toxicity
CC1(C)CC[C@]2(NC(=O)/C=C/c3ccc(C(F)(F)F)cc3)CC[C@]3(C)[C@H](C(=O)C=C4[C@@]5(C)C=C(C#N)C(=O)C(C)(C)[C@@H]5CC[C@]43C)[C@@H]2C1 [Compound I-4]	lower toxicity

What follows are compounds tested on human breast cancer cell strain MCF-7 (assay: MTT proliferation inhibition, MCF-7). Conditions: Homo sapiens, MCF7, MCF-7 cells, 48 h, read-out: Inhibitory activity (IC50) against proliferation, MCF-7.
Assay type: cell-based
Method: as §1, §2, §3, §4, §5, §6, §7

Compound	IC50 [µM]
CC1(C)CC[C@]2(NC(=O)/C=C(\C#N)c3ccc(F)cc3)CC[C@]3(C)[C@H](C(=O)C=C4[C@@]5(C)C=C(C#N)C(=O)C(C)(C)[C@@H]5CC[C@]43C)[C@@H]2C1 [Compound I-17]	0.238 ± 0.008
CC1(C)CC[C@]2(NC(=O)/C=C(\C#N)c3ccc(Cl)cc3)CC[C@]3(C)[C@H](C(=O)C=C4[C@@]5(C)C=C(C#N)C(=O)C(C)(C)[C@@H]5CC[C@]43C)[C@@H]2C1 [Compound I-18]	0.5 ± 0.17
CC1(C)CC[C@]2(NC(=O)/C=C/c3ccccc3)CC[C@]3(C)[C@H](C(=O)C=C4[C@@]5(C)C=C(C#N)C(=O)C(C)(C)[C@@H]5CC[C@]43C)[C@@H]2C1 [Compound I-1]	0.574 ± 0.021
CC1(C)CC[C@]2(NC(=O)/C=C/c3ccc(C(F)(F)F)cc3)CC[C@]3(C)[C@H](C(=O)C=C4[C@@]5(C)C=C(C#N)C(=O)C(C)(C)[C@@H]5CC[C@]43C)[C@@H]2C1 [Compound I-4]	0.562 ± 0.132

The compounds below were run on human non-small cell lung cancer cell strain A549 (assay: MTT proliferation inhibition, A549). Conditions: Homo sapiens, A549 cells, 48 h, read-out: Inhibitory activity (IC50) against proliferation, A549.
Assay type: cell-based
Method: as §1, §2, §3, §4, §5, §6, §7

Compound	IC50 [µM]
CC1(C)CC[C@]2(NC(=O)/C=C(\C#N)c3ccc(F)cc3)CC[C@]3(C)[C@H](C(=O)C=C4[C@@]5(C)C=C(C#N)C(=O)C(C)(C)[C@@H]5CC[C@]43C)[C@@H]2C1 [Compound I-17]	0.345 ± 0.174
CC1(C)CC[C@]2(NC(=O)/C=C(\C#N)c3ccc(Cl)cc3)CC[C@]3(C)[C@H](C(=O)C=C4[C@@]5(C)C=C(C#N)C(=O)C(C)(C)[C@@H]5CC[C@]43C)[C@@H]2C1 [Compound I-18]	0.3 ± 0.013
CC1(C)CC[C@]2(NC(=O)/C=C/c3ccccc3)CC[C@]3(C)[C@H](C(=O)C=C4[C@@]5(C)C=C(C#N)C(=O)C(C)(C)[C@@H]5CC[C@]43C)[C@@H]2C1 [Compound I-1]	0.599 ± 0.377
CC1(C)CC[C@]2(NC(=O)/C=C/c3ccc(C(F)(F)F)cc3)CC[C@]3(C)[C@H](C(=O)C=C4[C@@]5(C)C=C(C#N)C(=O)C(C)(C)[C@@H]5CC[C@]43C)[C@@H]2C1 [Compound I-4]	0.402 ± 0.02

What follows are compounds tested on human liver cancer cell strain HepG2 (assay: MTT proliferation inhibition, HepG2). Conditions: Homo sapiens, HepG2 cells, 48 h, read-out: Inhibitory activity (IC50) against proliferation, HepG2.
Assay type: cell-based
Method: as §1, §2, §3, §4, §5
The MTT reagent was added to the 96-well plate at 10 μL/well to further incubate for 4 h. The medium in the plate was aspirated and 100 μL of DMSO was added to each well, followed by shaking on the platform shaker for 10 min such that the crystals were dissolved. […] The mean value of three preliminary screening results was taken as the final inhibition rate thereof.
as §7

Compound	IC50 [µM]
CC1(C)CC[C@]2(NC(=O)/C=C(\C#N)c3ccc(F)cc3)CC[C@]3(C)[C@H](C(=O)C=C4[C@@]5(C)C=C(C#N)C(=O)C(C)(C)[C@@H]5CC[C@]43C)[C@@H]2C1 [Compound I-17]	0.114 ± 0.004
CC1(C)CC[C@]2(NC(=O)/C=C(\C#N)c3ccc(Cl)cc3)CC[C@]3(C)[C@H](C(=O)C=C4[C@@]5(C)C=C(C#N)C(=O)C(C)(C)[C@@H]5CC[C@]43C)[C@@H]2C1 [Compound I-18]	0.406 ± 0.017
CC1(C)CC[C@]2(NC(=O)/C=C/c3ccccc3)CC[C@]3(C)[C@H](C(=O)C=C4[C@@]5(C)C=C(C#N)C(=O)C(C)(C)[C@@H]5CC[C@]43C)[C@@H]2C1 [Compound I-1]	0.409 ± 0.016
CC1(C)CC[C@]2(NC(=O)/C=C/c3ccc(C(F)(F)F)cc3)CC[C@]3(C)[C@H](C(=O)C=C4[C@@]5(C)C=C(C#N)C(=O)C(C)(C)[C@@H]5CC[C@]43C)[C@@H]2C1 [Compound I-4]	0.412 ± 0.006
